Data reported in EP4706657A1, “COMBINATION THERAPY OF PEXIDARTINIB AND NINTEDANIB FOR PREVENTION OR TREATMENT OF PULMONARY FIBROSIS” (Korea Institute of Radiological & Medical Sciences, priority 2023, dated 2024).

Tests used:
[1] = tested on: pulmonary fibrosis induced by bleomycin; experiment: Inhibitory effect on pulmonary fibrosis induced by bleomycin in mice (Micro-CT, H&E and Masson's Trichrome staining, survival); assay type: in vivo; details: bleomycin sulfate 1.5 U/kg, male C57BL/6 mice; each drug 60 mg/kg orally once daily for two weeks starting 14 days after bleomycin; Micro-CT 4 weeks after bleomycin; compared to untreated group
Description: Each drug was administered starting 14 days after the administration of bleomycin. The control drugs, nintedanib and pexidartinib (IM-1), were both administered at a dose of 60 mg/kg, and the co-administration group was orally administered nintedanib (60 mg/kg) with IM-1 (60 mg/kg) once daily for two weeks (a total of 13 administrations). Additionally, to analyze the degree of inflammatory response and the degree of fibrosis, H&E staining and Masson's Trichrome staining were performed. In addition, the mouse survival rate was compared in FIG. 3.

[2] = tested on: radiation-induced pulmonary fibrosis; experiment: Inhibitory effect on radiation-induced pulmonary fibrosis in mice (Micro-CT, H&E and Masson's Trichrome staining); assay type: in vivo; details: SBRT 90 Gy, 4 mm collimator, male C57BL/6 mice; each drug 60 mg/kg orally daily, starting one hour before irradiation; Micro-CT two weeks after radiation exposure; compared to untreated group
From the text: Seven-week-old male C57BL/6 mice were divided into groups treated with IM-1, nintedanib, and the combination of the two drugs (IM-1 + nintedanib). One hour before stereotactic body radiation therapy (SBRT; 90 Gy, 4 mm collimator), the drugs were orally administered to the mice. The degree of pulmonary fibrosis and the inhibitory effect on radiation-induced lung injury were observed two weeks after radiation exposure. The IM-1 and nintedanib groups were each administered the respective drug daily at a dose of 60 mg/kg, and the combination group was administered both drugs daily at 60 mg/kg each. Additionally, to analyze the degree of inflammatory response and the degree of fibrosis, H&E staining and Masson's Trichrome staining were performed.

Row | Structure (SMILES) | degree of fibrosis [1] | degree of fibrosis [2]
1 | COC(=O)c1ccc2c(c1)NC(=O)/C2=C(\Nc1ccc(N(C)C(=O)CN2CCN(C)CC2)cc1)c1ccccc1 [nintedanib, methyl (3Z)-3-{[(4-{methyl[(4-methylpiperazin-1-yl)acetyl]amino}phenyl)amino](phenyl)methylidene}-2-oxo-2,3-dihydro-1H-indole-6-carboxylate] | a reduction in the degree of fibrosis | a reduction in the degree of fibrosis
2 | FC(F)(F)c1ccc(CNc2ccc(Cc3c[nH]c4ncc(Cl)cc34)cn2)cn1 [IM-1, 5-((5-chloro-1H-pyrrolo[2,3-b]pyridin-3-yl)methyl)-N-((6-(trifluoromethyl)pyridin-3-yl)methyl)pyridin-2-amine] | a reduction in the degree of fibrosis | a reduction in the degree of fibrosis
